Reference: US6649639B2, “Antipicornaviral compounds, compositions containing them, and methods for their use” (priority 1997, dated 2003)

Legend:
HRV serotype-14 = test: Antirhinoviral HI-HeLa Cell Culture Assay (XTT cell protection), HRV-14; type: cell-based, human rhinovirus; conditions: HRV serotype-14, HI-HeLa cells
Method: (§1) In the Cell Protection Assay, the ability of compounds to protect cells against HRV infection was measured by the XTT dye reduction method. This method is described in Weislow, O. S., Kiser, R., Fine, D. L., Bader, J., Shoemaker, R. H., Boyd, M. R., J. Natl. Cancer Inst. 1989, 81, 577-586, the disclosure of which is incorporated herein by reference.
(§2) Infected or mock-infected cells were suspended at 8×10^5 cells per mL and incubated with appropriate concentrations of compounds of formula I. Two days later, XTT/PMS was added to test plates, and the amount of formazan produced was quantified spectrophotometrically at 450/650 nm. […] The therapeutic index (TI) was calculated by dividing the CC50 by the EC50.
(§3) All strains of human rhinovirus (HRV) for use in this assay were purchased from American Type Culture Collection (ATCC) except for HRV serotype-14, which was produced from the infectious cDNA clone constructed and supplied to Applicants by Dr. Robert Rueckert at the Institute for Molecular Virology, University of Wisconsin, Madison, Wis. HRV stocks were propagated, and viral assays were performed in HI-HeLa cells (ATCC). Cells were grown in Minimal Essential Medium, available from Life Technologies, with 10% fetal bovine serum.
(§4) The compounds were tested against control compounds WIN 51711, WIN 52084, and WIN 54954, all obtained from Sterling-Winthrop Pharmaceuticals, and control compound Pirodavir, obtained from Janssen Pharmaceuticals. Antiviral data obtained for the test compounds are shown in Table 2 where all data are for HRV serotype-14 unless otherwise noted in parentheses.

HRV serotype 10 = test: Antirhinoviral HI-HeLa Cell Culture Assay (XTT cell protection), HRV serotype 10; type: cell-based, human rhinovirus; conditions: HRV serotype 10, HI-HeLa cells
Method: as §1, §2, §3, §4

HI-HeLa cells [1] = test: Cytotoxicity (CC50) in mock-infected HI-HeLa cells, antirhinoviral assay; type: cell-based
HRV serotype 1A = test: Antirhinoviral HI-HeLa Cell Culture Assay (XTT cell protection), HRV serotype 1A; type: cell-based, human rhinovirus; conditions: HI-HeLa cells
Method: as §1, §2, §3, §4

[2] = biological target: T1, Recombinant Rhinovirus 3C protease serotype 14 (Human rhinovirus 14, UniProt P03303); test: Inhibition of Rhinovirus Protease (FRET assay), serotype 14; type: biochemical, human rhinovirus (HRV) serotype 14; conditions: RVP serotype-14; enzyme start progress curves
T1 construct: Recombinant Rhinovirus 3C proteases from serotypes 14, 16, and 2; made in house
T1 sequence (P03303 1538-1719): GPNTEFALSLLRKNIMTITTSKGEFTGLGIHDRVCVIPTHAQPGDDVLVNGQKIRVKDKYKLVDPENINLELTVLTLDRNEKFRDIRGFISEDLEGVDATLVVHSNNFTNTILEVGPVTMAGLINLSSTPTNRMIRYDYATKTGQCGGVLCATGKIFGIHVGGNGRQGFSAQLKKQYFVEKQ
Method: Stock solutions (50 mM, in DMSO) of various compounds were prepared; dilutions were in the same solvent. […] Assays contained 2% DMSO, 50 mM tris pH 7.6, 1 mM EDTA, a compound at the indicated concentrations, approximately 1 μM substrate, and 50-100 nM protease. […] The kobs/I values were obtained from reactions initiated by addition of enzyme rather than substrate. RVP activity is measured in the fluorescence resonance energy transfer assay.
The data in the column designated kobs/I was measured from progress curves in enzyme start experiments.

HI-HeLa cells [3] = test: Cytotoxicity (CC50) in uninfected HI-HeLa cells, anticoxsackieviral assay; type: cell-based; conditions: CVA-21 assay
Method: The Coxsackie strain A-21 (CVA-21) was purchased from American Type Culture Collection (ATCC). Virus stocks were propagated, and antiviral assays were performed in HI-HeLa cells (ATCC). Cells were grown in Minimal Essential Medium with 10% fetal bovine serum.
The ability of compounds to protect cells against CVA-21 infection was measured by the XTT dye reduction method. This method is described in Weislow, O. S., Kiser, R., Fine, D. L., Bader, I., Shoemaker, R. H., Boyd, M. R., J. Natl. Cancer Inst. 1989, 81, 577-586, the disclosure of which is incorporated herein by reference. HI-HeLa cells were infected with CVA-21 at a multiplicity of infection (m.o.i.) of 0.05 (CVA-21) or mock-infected with medium only. Infected or uninfected cells were resuspended at 4×10^4 cells per mL and incubated with appropriate concentrations of drug. One day later, XTT/PMS was added to test plates, and the amount of formazan produced was quantified spectrophotometrically at 450/650 nm. […] The therapeutic index (Th) was calculated by dividing the CC50 by the EC50.

Compound	EC50 (HRV serotype-14)	EC50 (HRV serotype 10)	CC50 (HI-HeLa cells [1]; line of HRV serotype 1A)	CC50 (HI-HeLa cells [1]; line of HRV serotype 10)	CC50 (HI-HeLa cells [1]; line of HRV serotype-14)	EC50 (HRV serotype 1A)	kobs/I [2]	CC50 (HI-HeLa cells [3])
CCOC(=O)C=CC(CCC(N)=O)NC(=O)C(CC(=O)C(NC(=O)SC(C)(C)C)C(C)C)Cc1ccc(F)cc1 (stereo not shown) [Compound 26]	50 nM	550 nM	> 10000 nM	> 10000 nM	> 10000 nM	–	–	–
CCOC(=O)C=CC(CCC(N)=O)NC(=O)C(CC(=O)C(NC(=O)C1SCCS1)C(C)C)Cc1ccc(F)cc1 (stereo not shown) [Compound 27]	–	3300 nM	> 1000 nM	> 1000 nM	> 1000 nM	–	–	–
CC(C)C(NC(=O)SC1CCCC1)C(=O)CC(Cc1ccc(F)cc1)C(=O)NC(C=CC(=O)OCc1cccnc1)CCC(N)=O (stereo not shown) [Compound 28]	–	1000 nM	> 10000 nM	> 10000 nM	> 10000 nM	600 nM	–	–
CC(C)C(NC(=O)C1SCCS1)C(=O)CC(Cc1ccc(F)cc1)C(=O)NC(C=CC(=O)OCc1cccnc1)CCC(N)=O (stereo not shown) [Compound 30]	1500 nM	–	–	–	> 100000 nM	–	292,000 M^−1sec^−1	–
CCOC(=O)C=CC(CCC(N)=O)NC(=O)C(CC(=O)C(NC(=O)C1SCCCS1)C(C)C)Cc1ccc(F)cc1 (stereo not shown) [Compound 31]	–	4700 nM	> 3000 nM	> 3000 nM	> 3000 nM	6300 nM	–	–
CC(C)C(NC(=O)SC(C)(C)C)C(=O)CC(Cc1ccc(F)cc1)C(=O)NC(C=CC(=O)OCc1cccnc1)CCC(N)=O (stereo not shown) [Compound 32]	400 nM	1900 nM	> 32000 nM	> 32000 nM	> 32000 nM	2200 nM	58,000 M^−1sec^−1	–
CC(C)C(NC(=O)SC1CCCC1)C(=O)CC(Cc1ccc(F)cc1)C(=O)NC(C=CC(=O)OCCO)CCC(N)=O (stereo not shown) [Compound 33]	510 nM	1600 nM	> 32000 nM	> 32000 nM	> 32000 nM	1700 nM	281,000 M^−1sec^−1	–
CCOC(=O)C=CC(CCC(N)=O)NC(=O)C(CC(=O)C(NC(=O)c1cc(C)on1)C(C)C)Cc1ccc(F)cc1 (stereo not shown) [Compound 34]	–	400 nM	> 3000 nM	> 3000 nM	> 3000 nM	300 nM	–	–
Cc1cc(CCCCCOc2c(Cl)cc(C3=NCCO3)cc2Cl)on1 [WIN 54954, reference compound]	–	–	–	–	–	–	–	> 100000 nM
Ethyl-3-(CyPentylSCO-L-CyhexΨ[COCH2]-L-(p-F)Phe-L-Gln)-E-Propenoate [Compound 24]	32 nM	–	–	–	–	–	–	–
